According to patent US20030180260A1, “Immunotherapy or treating bacterial or viral infection at mucosal surfaces with probiotics, and compositions therefor” (priority 2000, published 2003):

Legend:
H influenzae = test: Clearance of non-typable H influenzae from the lungs of rats fed L acidophilus; format: in vivo, DA rats
Experimental: DA rats (200-250 gm, 8-10 weeks old, Animal Resource Centre, Perth, Wash.) were fed intragastrically L acidophilus in 0.75 mL PBS (2.5×10^10 per rat) or PBS alone every 2 days for 7 days at which time the rats were immuniised with formalin-killed H influenzae ([…]) administered intralumenally (see groups below). Rats continued to be fed every 2 days for 2 weeks and then boosted with 50 μL of formalin killed H influenzae (5×10^8 per rat) administered by the intratracheal route. After further feeding with L acidophilus for a further 7 days, the rats were challenged with 50 μL of live 5×10^8 H influenzae in the lung.
Immunisation Groups (5 Rats/Group):
2H influenzae (intralumenal)+H influenzae (intra-tracheal boost)
3 PBS (intralumenal)+L. acidophilus fed every 2 days
4H influenzae (intralumenal)+H influenzae (intratracheal boost)+L. acidophilus fed every 2 days
After 4 hrs post challenge, the rats were sacrificed and the levels of colonisation in the lung was examined in bronchial lavage (BAL) and lung homogenate (LH). The level of clearance was determined by a plating serial 10-fold dilutions of the lavage fluid or lung homogenate onto chocolate agar plates. The results were expressed as number of colony forming units (CFU.

NO = test: Nitric oxide (NO) secretion in saliva after Candida albicans challenge (Griess reaction); format: in vivo, DBA/2 mice; conditions: oral 5×10^9 CFU, FIG. 2
Experimental: DBA/2 mice (n=3 to 5 per group) were fed Lactobacillus acidophilus and then challenged with Candida albicans as described in Example 3 below. At various times following oral infusion, saliva was collected after injection with pilocarpine to stimulate saliva flow. The concentration of NO in saliva was determined by the Griess reaction according to the method by Gree et al (1982) Anal. Biochem 126:131-138. DBA/2 mice […] male mice (n=3-5 per group) were fed intragastrically every 2 days for 2 weeks with 5×10^9 L. acidophilus in 0.2 mL PBS. One day after the last feed mice were challenged with 10^8 Candida albicans blastospores by swabbing the oral cavity using a fine-tip sterile swab. At various days after infection the number of C. albicans in the oral mucosa was determined. The oral cavity (cheek, tongue and soft palate) was completely swabbed using a fine-tipped cotton swab. The cotton swab was placed in 1 mL PBS and the yeast cells were resuspended by mixing in a vortex mixer before culture of serial 10-fold dilutions on Sabourand dextrose agar supplemented with chloramphenicol at 37° C. The results were expressed as CFU/mL (FIG. 5)

IL-4 = IL-4 production by OVA-stimulated spleen lymphocytes of mice fed L. acidophilus (ELISA); format: in vivo, C57/BI6 mice; conditions: fed intragastrically, OVA-sensitised; spleen lymphocytes stimulated with OVA 5 μg/mL for 4 days; FIG. 1A
Experimental: To determine whether probiotic bacteria down-regulate Th2 and up-regulate Th1 cytokine response, C57/BI6 mice were fed intragastrically using a feeding needle, various numbers of Lactobacillus acidophilus (obtained from University of New South Wales, School of Microbiology and Immunology Culture Collection, Sydney, Australia) on consecutive days for 2 weeks after which they were sensitised with 8 μg of ovalbumin (OVA) and aluminium hydroxide in 0.2 mL phosphate-buffered saline administered by peritoneal injection. The mice were further fed ten times with L. acidophilus every two days for two weeks before they were sacrificed. Lymphocytes were isolated by teasing spleens through a sieve, washed with PBS, and resuspended at 10×10^6 One mL aliquots of the cell suspension were dispensed into wells of a 24-well flat-bottomed microtitre plate and stimulated with OVA (5 μg/mL). After incubation for 4 days the supernatants were collected and assayed for IL-4 and IFN-γ production by standard ELISA techniques using IL-4 or IFN-γ monoclonal antibody pairs. Briefly, wells of a 24-well microtitre plate were coated with a capture anti-IL-4 antibody. […] The colour development was read at 450/620 nm in an ELISA plate reader. The level of IL-4 in unknown samples was quantitated by interpolation using a standard curve. […]

Which results are given for “Lactobacillus acidophilus [L. acidophilus]”?
BAL H influenzae (H influenzae; bronchial lavage, 4 hrs post challenge with 5×10^8 live H influenzae): 0.7 ± 0.3 CFU/mL × 10^8; LH H influenzae (H influenzae; lung homogenate, 4 hrs post challenge with 5×10^8 live H influenzae): 12.5 ± 5.7 CFU/mL × 10^6; resistance to H influenzae infection in the lungs (H influenzae; rats fed L acidophilus and immunised with killed H influenzae): more resistance to infection; resistance to infection, repeated oral doses versus single bolus (H influenzae; repeated oral feeding compared with a single bolus): more resistant to infection than rats given a single bolus; secretion of NO into saliva, early after challenge (NO; early after C. albicans challenge): increased; secretion of NO into saliva, later stage (NO; later stage after C. albicans challenge): significantly reduced; IL-4 production (IL-4): suppression of IL-4 production in dose-dependent manner
